Experimental data as given in patent publication EP0097633B1, “Determination of the sensitivity of virus to antiviral agents” (Wahren, Britta, priority 1982, dated 1984).

Experiments:
HSV = test: Virus sensitivity assay (VSA): HSV patient material replicated in HL-cells with antiviral agent, cell disruption, virus antigen by ELISA sandwich technique (Example 1); format: cell-based, herpes simplex virus (HSV); details: for absorbance (A) at 405 nm: disrupted cells, culture of 1 to 3 days; for sensitivity of the investigated HSV to the antiviral agent: read from Fig. 1
Procedure: A material from a patient containing living HSV is mixed with a small amount of Eagle's tissue culture medium containing 2% of calf serum, 100 IE penicillin/ml and 100 […] of streptomycin/ml, after which the virus mixture is diluted 1:30 in this medium.
(§1) Sterile plastic plates comprising 24 wells, each having a culture surface of 2.5 cm^2 and containing about 5 x 10^5 HL-cells/well were inoculated with 0.1 ml of virus dilutions as above. Such of the above virus dilutions only containing a small amount of virus are first cultured for 3 days in HL-cells, on which virus replicates, after which the virus isolate from one cell passage is taken out, is diluted 1:30 and 0.1 ml of the dilutions is added to the plates as indicated above. The cells are then incubated at a temperature of 32-37°C, with addition of different antiviral agents, and without any addition of antiviral agent to obtain reference values. Each antiviral agent is added in a dilution series comprising six different concentrations (Cl-C6), some of which correspond to desired serum concentrations for the treatment of patients. In table 1 is indicated the antiviral agents and concentrations thereof used.
As a background control of virus replication taking place and for a direct typing of virus 2 cell containing wells/plate are inoculated with a mixture of 0.1 ml virus dilution and 0.05 ml of Brij-58 of 1%.
After a culture of 1 to 3 days the effect of the antiviral agents is then evaluated by measurement with ELISA sandwich technique as described below. However, the cells are treated in the following way before this measurement.
(§2) The supernatant is sucked off and in order to achieve cell disrupture 800 µl of distilled water are added to the cells on the plates. The plates are frozen at -20°C and after some time sufficient for formation of ice crystals (about 15 min) the plates are thawed to room temperature for measurement of virus antigen. If desired, the plates can be preserved in a frozen state for a long time before they are thawed in order to carry out the measurement of virus antigen. When the plates have thawed 200 µl of NaCI of 4.5% are added to the cells in order to obtain an isotonic solution.
The amount of virus antigen formed is thereafter determined as follows. Guinea pig anti-HSV-serum is diluted in 0.1-M sodium carbonate buffer. 0.1 ml of the serum dilution is filled per well in microplates (M 29 AR, Dynatech, Zug, Switzerland) which have been washed three times with NaCI-solution of 0.9% containing 0.05% of Tween® 20, after which the plates are incubated for 16 hours at room temperature. The plates can be preserved sealed with their contents at +4°C up to 2-3 months. The optimal antibody concentration has been determined by antibody titration with the respective antigen and control antigen.
0.1 ml of the cell material obtained above or a known virus antigen is filled into plates treated with antibody and is incubated for 4 hours at +4°C. After washing with the washing solution indicated above 0.1 ml of rabbit anti-HSV is added and the plates are incubated for 2 hours at +37°C. The plates are washed and 0.1 ml of conjugate is added, after which they are incubated for 2 hours at +37°C. The conjugate consists of pig anti-rabbit IgG conjugated with alkaline phosphatase (Orion Diagnostica, Helsinki, Finland) in a dilution of 1:100. Non-bonded conjugate is washed off before 100 pl of the substrate p-nitrophenyl phosphate (1 mg/ml, Sigma, St Louis, MO, USA) are added. For dilution of the substrate 1 M diethanol buffer, pH 9.8 containing 0.5 x 10-^3 M MgC12 is used and for dilution of antisera and conjugate phosphate buffer (PBS), pH 7.3-7.4 with 0.5% of Tween® 20, 0.5% of BSA (bovine serum albumin) and 0.02% of NaN3 is used. The reaction is stopped after 20-60 min with 0.025 ml of 5 M NaOH. The absorbance (A) is thereafter read at 405 nm with Titertek Multiskan® (Flow Laboratories, Irvine, Scotland). […]

[1] = system: virus isolate from an eye IDU treated with without result; test: VSA on a virus isolate from an eye treated with IDU without result (Example 3); format: cell-based
Procedure: as §1, §2
The amount of virus antigen formed is thereafter determined as follows. Guinea pig anti-HSV-serum is diluted in 0.1-M sodium carbonate buffer. 0.1 ml of the serum dilution is filled per well in microplates (M 29 AR, Dynatech, Zug, Switzerland) which have been washed three times with NaCI-solution of 0.9% containing 0.05% of Tween® 20, after which the plates are incubated for 16 hours at room temperature. The plates can be preserved sealed with their contents at +4°C up to 2-3 months.
0.1 ml of the cell material obtained above or a known virus antigen is filled into plates treated with antibody and is incubated for 4 hours at +4°C. After washing with the washing solution indicated above 0.1 ml of rabbit anti-HSV is added and the plates are incubated for 2 hours at +37°C. The plates are washed and 0.1 ml of conjugate is added, after which they are incubated for 2 hours at +37°C. The conjugate consists of pig anti-rabbit IgG conjugated with alkaline phosphatase (Orion Diagnostica, Helsinki, Finland) in a dilution of 1:100. Non-bonded conjugate is washed off before 100 pl of the substrate p-nitrophenyl phosphate (1 mg/ml, Sigma, St Louis, MO, USA) are added. For dilution of the substrate 1 M diethanol buffer, pH 9.8 containing 0.5 x 10-^3 M MgC12 is used and for dilution of antisera and conjugate phosphate buffer (PBS), pH 7.3-7.4 with 0.5% of Tween® 20, 0.5% of BSA (bovine serum albumin) and 0.02% of NaN3 is used. The reaction is stopped after 20-60 min with 0.025 ml of 5 M NaOH. The absorbance (A) is thereafter read at 405 nm with Titertek Multiskan® (Flow Laboratories, Irvine, Scotland).

[2] = serum; desired concentrations for the treatment of patients; cited from earlier work
[3] = C1: Ara-A 5, ACV 0.15, PFA 25, IDU 0.5 μM, C0 (no agent) 1.425
[4] = C2: Ara-A 10, ACV 0.31, PFA 50, IDU 1 μM, C0 1.425
[5] = C3: Ara-A 20, ACV 0.63, PFA 100, IDU 2 μM, C0 1.425
[6] = C4: Ara-A 40, ACV 1.25, PFA 200, IDU 4 μM, C0 1.425
[7] = C5: Ara-A 80, ACV 2.5, PFA 400, IDU 8 μM, C0 1.425
[8] = C6: Ara-A 160, ACV 5, PFA 800, IDU 16 μM, C0 1.425
[9] = C1: Ara-A 5, ACV 0.15, PFA 25, IDU 0.5 μM, C0 (no agent) 1.605
[10] = C2: Ara-A 10, ACV 0.31, PFA 50, IDU 1 μM, C0 1.605
[11] = C3: Ara-A 20, ACV 0.63, PFA 100, IDU 2 μM, C0 1.605
[12] = C4: Ara-A 40, ACV 1.25, PFA 200, IDU 4 μM, C0 1.605
[13] = C5: Ara-A 80, ACV 2.5, PFA 400, IDU 8 μM, C0 1.605
[14] = C6: Ara-A 160, ACV 5, PFA 800, IDU 16 μM, C0 1.605

| Structure (SMILES) | absorbance (A) at 405 nm (HSV; [3]) | absorbance (A) at 405 nm (HSV; [4]) | absorbance (A) at 405 nm (HSV; [5]) | absorbance (A) at 405 nm (HSV; [6]) | absorbance (A) at 405 nm (HSV; [7]) | absorbance (A) at 405 nm (HSV; [8]) | sensitivity of the investigated HSV to the antiviral agent (HSV) | adsorbance values [1, 9] | adsorbance values [1, 10] | adsorbance values [1, 11] | adsorbance values [1, 12] | adsorbance values [1, 13] | adsorbance values [1, 14] | Serum concentrations used clinically [2] |
| --- | --- | --- | --- | --- | --- | --- | --- | --- | --- | --- | --- | --- | --- | --- |
| O=C(O)P(=O)(O)O [PFA, phosphonoformic acid] | 1.437 | 1.391 | 1.346 | 1.321 | 0.893 | 0.310 | a lower one | 1.487 | 1.502 | 0.656 | 0.216 | 0.092 | 0.083 | 100 μM or IU/ml |
| Nc1nc2c(ncn2COCCO)c(=O)[nH]1 [ACV, acyclovir] | 1.382 | 1.135 | 0.958 | 0.810 | 0.547 | 0.361 | high sensitivity | 1.608 | 1.615 | 1.594 | 1.179 | 1.475 | 1.415 |  |
